Results taken from US12448388B2, “PRMT5 inhibitors and uses thereof” (Gilead Sciences, Inc., priority 2023, dated 2025).

What was measured:
[1] = system: Symmetric Di-methyl Arginine (SDMA) signal (PRMT5 inhibition) in HCT116 MTAP-deleted cells; assay: Symmetric di-methyl arginine image-based high content screen assay (SDMA assay), HCT116 MTAP-deleted; type: cell-based; conditions: for EC50 selectivity: HCT116 WT vs HCT116 MTAP-deleted; for EC50: Homo sapiens, HCT-116, HCT116 MTAP-deleted, class symbols
How it was run: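 HCT116 WT and MTAP-deleted cells (800/well, RPMI 1640 + 10% FBS) treated with compound 3 days at 37 °C; formalin-fixed, stained with anti-SDMA antibody/Alexa 488 plus DAPI. Mean SDMA intensity per DAPI-defined cell imaged; EC50 from 4-parameter logistic fit.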

[2] = system: HCT116 MTAP-deleted cell lines; assay: Cell viability assay (CellTiter-Glo, 7 days), HCT116 MTAP-deleted; type: cell-based; conditions: Homo sapiens, HCT-116; cell viability assay, HCT116 MTAP-deleted; class symbols; read-out: CC50
How it was run: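 HCT116 MTAP-deleted and wild-type cells exposed to serially diluted compound for 7 days at 37 °C, 5% CO2. Viability read by CellTiter-Glo luminescence; CC50 derived per line, with selectivity comparing WT to MTAP-deleted, limited solubility can inflate values marked *.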

Work on CN(C(=O)c1ccc2nc(N)c3cncn3c2c1)[C@@H]1COc2cc(C3CC3)ccc21 [Ff-548, (S)-4-amino-N-(6-cyclopropyl-2,3-dihydrobenzofuran-3-yl)-N-methylimidazo[1,5-a]quinoxaline-8-carboxamide] yielded an EC50 selectivity [1] of 102, an EC50 [1] of 1 to 5 nM and a CC50 [2] of 100 to 1000 nM.
Compound CN(C(=O)c1ccc2nc(N)c3cncn3c2c1)[C@@H]1COc2cc(Cl)ccc21 [Ff-566, (S)-4-amino-N-(6-chloro-2,3-dihydrobenzofuran-3-yl)-N-methylimidazo[1,5-a]quinoxaline-8-carboxamide] has an EC50 selectivity [1] of 497, an EC50 [1] of 1 to 5 nM and a CC50 [2] of 100 to 1000 nM.
Work on CN(C(=O)c1cc2c(cc1F)nc(N)c1cncn12)[C@@H]1COc2cc(Cl)ccc21 [Ff-567, (S)-4-amino-N-(6-chloro-2,3-dihydrobenzofuran-3-yl)-7-fluoro-N-methylimidazo[1,5-a]quinoxaline-8-carboxamide] yielded an EC50 selectivity [1] of 707, an EC50 [1] of no more than 1 nM and a CC50 [2] of less than 100 nM.
Compound CN(C(=O)c1cc2c(cc1F)nc(N)c1cncn12)[C@@H]1COc2cc(F)ccc21 [Ff-568, (S)-4-amino-N-(6-fluoro-2,3-dihydrobenzofuran-3-yl)-7-fluoro-N-methylimidazo[1,5-a]quinoxaline-8-carboxamide] has an EC50 selectivity [1] of 457, an EC50 [1] greater than 5 nM and a CC50 [2] of 100 to 1000 nM.
In the case of Nc1nc2ccc(C(=O)N3CCC4(CC4)[C@@H]4Oc5cc(OC(F)(F)F)ccc5[C@@H]43)cc2n2cncc12 [Ff-615, (4-aminoimidazo[1,5-a]quinoxalin-8-yl)((4aS,9bS)-7-(trifluoromethoxy)-2,3,4a,9b-tetrahydro-1H-spiro[benzofuro[3,2-b]pyridine-4,1′-cyclopropan]-1-yl)methanone], the EC50 selectivity [1] is reported as 158, the EC50 [1] is reported as no more than 1 nM and the CC50 [2] is reported as less than 100 nM.
In the case of C[C@@H]1C[C@@H]2Oc3cc(OC(F)(F)F)ccc3[C@@H]2N(C(=O)c2ccc3nc(N)c4cncn4c3c2)C1 [Ff-616, (4-aminoimidazo[1,5-a]quinoxalin-8-yl)((3R,4aS,9bS)-3-methyl-7-(trifluoromethoxy)-3,4,4a,9b-tetrahydrobenzofuro[3,2-b]pyridin-1(2H)-yl)methanone], the EC50 selectivity [1] is reported as 162, the EC50 [1] is reported as no more than 1 nM and the CC50 [2] is reported as less than 100 nM.
Compound Cc1ncn2c1c(N)nc1cnc(C(=O)N3CCC4(CC4)[C@@H]4Oc5cc(OC(F)(F)F)ccc5[C@@H]43)cc12 [Ff-617, (4-amino-3-methylimidazo[1,5-a]pyrido[3,4-e]pyrazin-8-yl)((4aS,9bS)-7-(trifluoromethoxy)-2,3,4a,9b-tetrahydro-1H-spiro[benzofuro[3,2-b]pyridine-4,1′-cyclopropan]-1-yl)methanone] has an EC50 selectivity [1] of 274, an EC50 [1] of 1 to 5 nM and a CC50 [2] of less than 100 nM.
Compound Nc1nc2cnc(C(=O)N3CCC4(CC4)[C@@H]4Oc5cc(OC(F)(F)F)ccc5[C@@H]43)cc2n2cncc12 [Ff-618, (4-aminoimidazo[1,5-a]pyrido[3,4-e]pyrazin-8-yl)((4aS,9bS)-7-(trifluoromethoxy)-2,3,4a,9b-tetrahydro-1H-spiro[benzofuro[3,2-b]pyridine-4,1′-cyclopropan]-1-yl)methanone] has an EC50 selectivity [1] of 294, an EC50 [1] of 1 to 5 nM and a CC50 [2] of less than 100 nM.
In the case of Cc1ncn2c1c(N)nc1cnc(C(=O)N3C[C@H](C)C[C@@H]4Oc5cc(OC(F)(F)F)ccc5[C@@H]43)cc12 [Ff-619, (4-amino-3-methylimidazo[1,5-a]pyrido[3,4-e]pyrazin-8-yl)((3R,4aS,9bS)-3-methyl-7-(trifluoromethoxy)-3,4,4a,9b-tetrahydrobenzofuro[3,2-b]pyridin-1(2H)-yl)methanone], the EC50 selectivity [1] is reported as 58, the EC50 [1] is reported as 1 to 5 nM and the CC50 [2] is reported as less than 100 nM.
In the case of Cc1ncn2c1c(N)nc1cnc(C(=O)N3C[C@H](C)C[C@@H]4Oc5cc(C(F)(F)F)ccc5[C@@H]43)cc12 [Ff-624, (4-amino-3-methylimidazo[1,5-a]pyrido[3,4-e]pyrazin-8-yl)((3R,4aS,9bS)-3-methyl-7-(trifluoromethyl)-3,4,4a,9b-tetrahydrobenzofuro[3,2-b]pyridin-1(2H)-yl)methanone], the EC50 selectivity [1] is reported as 27, the EC50 [1] is reported as greater than 5 nM and the CC50 [2] is reported as 100 to 1000 nM.
For Nc1nc2cc(F)c(C(=O)N3CC[C@H]4C[C@@H]3c3ccc(C(F)(F)F)c(F)c3O4)cc2n2cncc12 [Ff-634, (4-amino-7-fluoroimidazo[1,5-a]quinoxalin-8-yl)((2S,6R)-10-fluoro-9-(trifluoromethyl)-3,4-dihydro-2H-2,6-methanobenzo[b][1,5]oxazocin-5(6H)-yl)methanone], the EC50 selectivity [1] was 171, the EC50 [1] was no more than 1 nM and the CC50 [2] was less than 100 nM.
For [2H]C1([2H])C[C@H]2C[C@H](c3ccc(C(F)(F)F)cc3O2)N1C(=O)c1cc2c(cc1F)nc(N)c1cncn12 [Ff-637, (4-amino-7-fluoroimidazo[1,5-a]quinoxalin-8-yl)((2S,6R)-9-(trifluoromethyl)-3,4-dihydro-2H-2,6-methanobenzo[b][1,5]oxazocin-5(6H)-yl-4,4-d2)methanone], the EC50 selectivity [1] was 182, the EC50 [1] was no more than 1 nM and the CC50 [2] was less than 100 nM.
For Cc1ncc2c(N)nc3ccc(C(=O)N4CCC[C@@H]5Oc6cc(OC(F)(F)F)ccc6[C@@H]54)cc3n12 [Ff-640, (4-amino-1-methylimidazo[1,5-a]quinoxalin-8-yl)((4aS,9bS)-7-(trifluoromethoxy)-3,4,4a,9b-tetrahydrobenzofuro[3,2-b]pyridin-1(2H)-yl)methanone], the EC50 selectivity [1] was 415, the EC50 [1] was 1 to 5 nM and the CC50 [2] was less than 100 nM.
With CN(C(=O)c1ccc2nc(N)c3cncn3c2c1)[C@@H]1COc2cc(C34CC(C(F)F)(C3)C4)ccc21 [Ff-641, (S)-4-amino-N-(6-(3-(difluoromethyl)bicyclo[1.1.1]pentan-1-yl)-2,3-dihydrobenzofuran-3-yl)-N-methylimidazo[1,5-a]quinoxaline-8-carboxamide] the EC50 selectivity [1] was 389, the EC50 [1] was no more than 1 nM and the CC50 [2] was less than 100 nM.
In the case of [2H]C1([2H])CC[C@@H]2Oc3cc(C(F)(F)F)ccc3[C@@H]2N1C(=O)c1ccc2nc(N)c3cncn3c2c1 [Ff-643, (4-aminoimidazo[1,5-a]quinoxalin-8-yl)((4aS,9bS)-7-(trifluoromethyl)-3,4,4a,9b-tetrahydrobenzofuro[3,2-b]pyridin-1(2H)-yl-2,2-d2)methanone], the EC50 selectivity [1] is reported as 155, the EC50 [1] is reported as no more than 1 nM and the CC50 [2] is reported as less than 100 nM.
[2H]C1([2H])CC[C@@H]2Oc3cc(C(F)(F)F)ccc3[C@@H]2N1C(=O)c1cc2c(cn1)nc(N)c1c(C)ncn12 [Ff-644, (4-amino-3-methylimidazo[1,5-a]pyrido[3,4-e]pyrazin-8-yl)((4aS,9bS)-7-(trifluoromethyl)-3,4,4a,9b-tetrahydrobenzofuro[3,2-b]pyridin-1(2H)-yl-2,2-d2)methanone] was tested, and the EC50 selectivity [1] was 92, the EC50 [1] was no more than 1 nM and the CC50 [2] was less than 100 nM.
With Cc1ncn2c1c(N)nc1cnc(C(=O)N3C[C@@H](F)C[C@@H]4Oc5cc(C(F)(F)F)ccc5[C@@H]43)cc12 [Ff-658, (4-amino-3-methylimidazo[1,5-a]pyrido[3,4-e]pyrazin-8-yl)((3S,4aS,9bS)-3-fluoro-7-(trifluoromethyl)-3,4,4a,9b-tetrahydrobenzofuro[3,2-b]pyridin-1(2H)-yl)methanone] the EC50 selectivity [1] was 124, the EC50 [1] was 1 to 5 nM and the CC50 [2] was less than 100 nM.
